# Entries after “also recorded” stand apart in the source; their conditions may differ.
# How the values were obtained:
# [1] = system: 5XFAD transgenic (Tg) mice; test: Flow cytometry of brain homogenate immune cells (Th1, M1 microglia); type: in vivo, mouse; conditions: 6-month-old 5XFAD mice, 50 mg/kg intraperitoneal injection every day for one month, versus vehicle
# Method: Tg mice and co-housed WT mice (corresponding WT mice generated by mating Tg mice and C57 mice) were housed in the same cage after birth. WT mice (C57) were housed in separate cages to avoid cross-transfer of microbiota. All mice were kept in a 23° C. room with a 12-hour (h) light-dark cycle. Mice were randomly assigned to different groups before treatment. For time course analysis of Tg mice, male and female Tg mice were sacrificed at 2, 3, 5, 7 and 9 months of age. The mouse brain was collected and stained for immune cell analysis and cytokine analysis. […] The brains and feces of the mice were then used for different analyses.
# Mice were anesthetized, blood samples were collected into EDTA-containing tubes, and red blood cells were removed using 1×red blood lysis buffer. Before tissue collection, the brains were perfused with ice-cold PBS to avoid sampling the circulating blood immune cells, and the brains were removed, chopped into pieces and dissected according to the introduction of the Adult Brain Dissociation Kit (Miltenyi, Cat No. 130-107-677) using the gentleMACS dissociator (Miltenyi Biotec). The brain homogenate was filtered through a 70-μm cell strainer and centrifuged at 300×g for 5 min at 4° C. […] All samples were counted and adjusted to a density of 2-3×10^6/100 μL, labeled with a Live/Dead kit for 30 min, and then centrifuged at 500×g for 3 min at 4° C. […]
# SLC7A5 = target: T1, SLC7A5 (Mus musculus, UniProt Q9Z127); test: Uptake of ^13C-labeled phenylalanine by CD4^+ T cells; type: cell-based; conditions: ^13C-phenylalanine 5 mmol/L, 0.5 h
# T1 construct: endogenous in cells; host or cells: Primary CD4+ T cells (naive/Th0 and IL-12-induced Th1) from splenocytes of C57BL/6 mice
# Method: (k) The uptake of phenylalanine by the naïve CD4 T cells. The naïve CD4 T cells were cultured with/without ^13C-labeled phenylalanine for 0.5 h. Mass Spectrometry of phenylalanine-related compounds were tested. ^13C-Phenylalanine is administered at a concentration of 5 mmol/L, and is taken up by an L-type amino acid transporter.
# Naive CD4^+ T cells were separated from the splenocytes of 8-month-old C57BL/6 female mice using the Naive CD4^+ T cell Isolation Kit (Stem Cell, Cat No. 19765) and were induced to Th1 differentiation by 20 ng/mL IL-12. After 3 days, a total of 5 ×10^5 cells/well Th1 cells and Th0 cells in 0.5 mL of RPMI-1640 medium were plated into 48-well plates. ^13C-labeled phenylalanine and 5 mM amino transporter inhibitor BCH were added into indicated wells. After 0.5 h, cells were collected and washed twice with ice-cold D-PBS. 50 μL deionized water was added and cells were lysed through freezing and thawing twice at −80° C. The cell lysate was centrifuged at 12000×g for 10 min and ^13 C-labeled phenylalanine in the supernatant was analyzed by Mass spectrometry.
# naive CD4^+ T cells = test: In vitro differentiation and proliferation induced by phenylalanine and isoleucine; type: cell-based, mouse; conditions: 3 days; for Th1 cell proliferation: amino acid (1 mM) added to CellTrace-stained naive CD4^+ T cell culture; for Th0 cell differentiation into Th1 cells: amino acid (1 mM) added to naive CD4^+ T cell culture
# Method: (e) The effects of OM1 on the differentiation of naive CD4^+ T cells (Th0 cells) to Th1 cells induced by phenylalanine and isoleucine. Naive CD4^+ T cells were cultured for 3 days with/without OM1 in the presence of phenylalanine (1 mM) or isoleucine (1 mM). The frequency of Th1 (CD4^+IFN-γ^+) cells was tested by flow cytometry. The data are presented as mean±standard error of the mean (mean±sem); n=3 replicates per group. Left, *P<0.05, **P<0.01 by one-way ANOVA (F (2, 6)=15.64). Right, *P<0.05, **P<0.01 by one-way ANOVA (F (2, 6)=10.35).
# (f) The effects of OM1 on the proliferation of Th1 cells induced by phenylalanine and isoleucine. The naive CD4^+ T cells were stained with CellTrace and cultured for 3 days with/without OM1 in the presence of phenylalanine (1 mM) and isoleucine (1 mM). The density of CellTrace fluorescence in Th1 (CD4^+IFN-γ^+) cells was tested by flow cytometry (see Methods). The data are presented as mean±standard error of the mean (mean±sem), n=3. *P<0.05, ***P<0.001 by one-way ANOVA (F (4, 9)=28.34).
# Naive CD4^+ T cells were separated from the splenocytes of 8-month-old C57BL/6 female mice using the Naive CD4^+ T cell Isolation Kit (Stem Cell, #19765), and the cells were stained with CellTrace (Thermo Fisher, #C34557). A total of 1×10^5 cells/well in 0.2 mL of RPMI-1640 medium were plated in 96-well plates, and the culture medium was supplemented with cytokines or blocking antibodies. Th0: 10 ng/mL mIL-2; Th1:10 ng/mL mIL-2, 5000 ng/mL 11B11. Phenylalanine (final concentration, 2 mmol/L), isoleucine (final concentration, 2 mmol/L) and OM1 (final concentration, 100 μg/mL) were added into the indicated wells, respectively. After incubation at 37° C. in 5% CO2 for 5 days, cells were acquired on a BD Fortessa cytometer, and data were analyzed using FlowJo software.
# C57 mice = test: Intraperitoneal injection of phenylalanine and isoleucine, blood Th1 cells by flow cytometry; type: in vivo, mouse; conditions: WT (C57) mice, intraperitoneal injection 50 mg/kg for 4 days
# Method: (g) Blood Th1 cell changes after 4-day intraperitoneal (i.p.) injection of phenylalanine and isoleucine (n=6). ***P<0.001 by one-way ANOVA (F (2, 21)=101.8).
# Tg mice and co-housed WT mice (corresponding WT mice generated by mating Tg mice and C57 mice) were housed in the same cage after birth. WT mice (C57) were housed in separate cages to avoid cross-transfer of microbiota. All mice were kept in a 23° C. room with a 12-hour (h) light-dark cycle. Mice were randomly assigned to different groups before treatment. For time course analysis of Tg mice, male and female Tg mice were sacrificed at 2, 3, 5, 7 and 9 months of age. The mouse brain was collected and stained for immune cell analysis and cytokine analysis. Before the mice were sacrificed, feces were collected for gut microbiota analysis. […] All mouse movements that occur in PhenoTyper (HomeCage) are recorded by a computerized tracking system, which calculates the time and number of entrances required to reach 80% of the performance standard (Noldus, Ethovision). […]
# Mice were anesthetized, blood samples were collected into EDTA-containing tubes, and red blood cells were removed using 1×red blood lysis buffer. […] All samples were counted and adjusted to a density of 2-3×10^6/100 μL, labeled with a Live/Dead kit for 30 min, and then centrifuged at 500×g for 3 min at 4° C. […]
# T1 sequence (Q9Z127 whole entry): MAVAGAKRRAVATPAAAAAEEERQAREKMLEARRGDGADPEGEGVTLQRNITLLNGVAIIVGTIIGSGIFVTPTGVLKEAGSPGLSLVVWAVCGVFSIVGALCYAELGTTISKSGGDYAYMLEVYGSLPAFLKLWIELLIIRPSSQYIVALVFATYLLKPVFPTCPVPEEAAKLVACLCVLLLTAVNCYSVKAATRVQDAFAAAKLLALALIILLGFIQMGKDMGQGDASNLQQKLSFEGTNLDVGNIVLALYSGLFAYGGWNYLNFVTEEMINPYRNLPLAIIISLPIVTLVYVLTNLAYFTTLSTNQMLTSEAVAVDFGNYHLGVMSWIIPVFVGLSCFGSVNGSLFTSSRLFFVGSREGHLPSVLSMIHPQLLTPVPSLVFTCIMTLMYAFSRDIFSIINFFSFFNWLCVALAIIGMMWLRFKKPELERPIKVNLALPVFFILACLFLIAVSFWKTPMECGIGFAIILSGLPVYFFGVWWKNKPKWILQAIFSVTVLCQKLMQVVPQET
# T1 sequence (P10852 whole entry partner): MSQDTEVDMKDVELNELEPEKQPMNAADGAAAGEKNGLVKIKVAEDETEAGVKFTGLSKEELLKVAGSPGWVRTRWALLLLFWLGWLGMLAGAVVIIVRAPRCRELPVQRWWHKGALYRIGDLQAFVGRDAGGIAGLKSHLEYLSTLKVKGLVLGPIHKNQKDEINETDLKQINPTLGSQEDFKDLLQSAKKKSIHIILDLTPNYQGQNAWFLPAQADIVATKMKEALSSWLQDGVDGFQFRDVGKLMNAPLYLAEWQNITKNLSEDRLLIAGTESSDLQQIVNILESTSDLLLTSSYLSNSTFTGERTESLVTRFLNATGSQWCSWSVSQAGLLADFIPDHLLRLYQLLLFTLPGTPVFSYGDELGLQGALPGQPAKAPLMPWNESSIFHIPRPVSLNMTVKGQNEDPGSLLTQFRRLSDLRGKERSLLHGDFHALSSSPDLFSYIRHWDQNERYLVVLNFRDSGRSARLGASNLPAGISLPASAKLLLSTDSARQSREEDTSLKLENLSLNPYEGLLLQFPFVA
Compound,proportion of pro-inflammatory Th1 cells in the brain [1],uptake of ^13C-labeled phenylalanine by CD4^+ T cells (SLC7A5),Th1 cell proliferation (naive CD4^+ T cells),Th0 cell differentiation into Th1 cells (naive CD4^+ T cells),Th1 cell count in the blood (C57 mice)
Nc1cc(COc2c(Cl)cc(C[C@H](N)C(=O)O)cc2Cl)c2oc(-c3ccccc3)nc2c1 [JPH203],effectively inhibits the proportion of Th1 cells in the brain; also recorded: significantly downregulated the proportion of pro-inflammatory Th1 cells in the mouse brain,blocked,,,
CC[C@H](C)[C@H](N)C(=O)O [isoleucine],,,increased,increased,increased significantly
N[C@@H](Cc1ccccc1)C(=O)O [phenylalanine],,,increased,increased,increased significantly

# From patent publication US20220280589A1, “METHOD FOR TREATING ALZHEIMER'S DISEASE BY REGULATING AMINO ACID LEVEL” (SHANGHAI GREEN VALLEY PHARMACEUTICAL CO., LTD., priority 2019, published 2022)
